Entries after “also recorded” stand apart in the source; their conditions may differ.
Tests used:
[1] = tested on: E. coli strain ML2; assay: Cell growth (OD600) / toxicity of unnatural ribonucleoside triphosphates under ribonucleotide screening conditions; assay type: cell-based; conditions: for OD600: after 3 h of protein induction; for Cell growth / toxicity: YTP at the higher concentration (250 μM)
Protocol: In vivo Translation Screen of XTPs/YTPs. An overnight culture of the SSO strain ML2 carrying the pGEX-MbPylRS TetR plasmid was grown in 2×YT supplemented with 50 mM potassium phosphate, […] chloramphenicol and 100 μg/mL carbenicillin (herein referred to in this section as “media”), then diluted back to an OD600 of 0.03 in the same media and grown to an OD600 of 0.4 to 0.6. The culture was then chilled with shaking over ice-water for 15 minutes then pelleted by centrifugation at 3,200×g for 10 min. Cells were then resuspended and washed with ice-cold ddH2O twice then resuspended in ice-cold ddH2O to OD600 of 55-65. The electrocompetent cells (50 μL) and 1 ng of Golden Gate assembled plasmid with the UBP within the sfGFP and tRNAPyl genes (see Golden Gate Assembly of Plasmids) were transferred to a pre-chilled electroporation cuvette (0.2-cm-gap), then electroporated (Gene Pulser II; Bio-Rad) according to manufacturer's recommendations (voltage […], capacitor 2.5 μF, resistor 200Ω), and then immediately diluted with 950 μL of media. […] Two-fold dilutions of the recovery were plated onto solid media supplemented with zeocin (50 μg/mL), dCNMOTP (10 μM), dTPT3TP (10 μM), and agar (2% w/v), then grown at 37° C. for 18 h. […] An aliquot (50 μL) was subjected to plasmid isolation using the ZR Plasmid Prep Kit (Zymo Research). Isolated plasmids were then subjected to the streptavidin gel shift assay described below (using primers P3-4 and P5-6, Table S1) to determine UBP retention.
Samples were shielded from light after addition of AzK to prevent photodegradation. These samples were then grown at 37° C. for 20 min before adding 1 mM IPTG and grown at 37° C. for an additional 1 h to induce T7 RNAP and transcription of tRNAPyl and PylRS. From this point on, cells were monitored for growth and fluorescence. Expression of sfGFP was then induced with anhydrotetracycline (100 ng/mL).
Examining the Toxicity of Ribonucleoside Triphosphates. An overnight culture of ML2 was grown in 2×YT media supplemented with 50 mM potassium phosphate and chloramphenicol (5 μg/mL), referred to throughout this section as “media”. This culture was diluted back to an OD600 of 0.01 split into multiple 300 μL cultures, each supplemented with varying concentrations of TPT3TP, TAT1TP, NaMTP, or 5FMTP, along with a no triphosphate control. The cultures were then incubated at 37° C. with shaking at 230 rpm. […] OD600 was then plotted as a function of time for each nucleotide at each concentration to visualize differences in growth rates.

[2] = tested on: sfGFP^151(AXC); assay: Optimization of unnatural ribonucleotide triphosphate concentrations (sfGFP fluorescence and protein shift); assay type: cell-based, E. coli
Protocol: Examples 1A, 1B, and 2 identified dCNMO-dTPT3 as a competent UBP for the storage of information, and TAT1TP and NaMTP or 5FMTP as competent ribonucleoside triphosphates for its retrieval. Upon transformation with the same plasmids used above, 10 μM dTPT3TP and 25 μM dCNMOTP were provided in the growth media, which was then also supplemented with TAT1TP at concentrations ranging from 100 μM to 12.5 μM, and either NaMTP or 5FMTP at concentrations ranging from 200 μM to 12.5 μM, all in series of 2-fold dilutions, and after the addition of 1 mM AzK, the cells were induced to express sfGFP. […] In both cases, fluorescence was higher at lower concentrations of NaMTP or 5FMTP (due to increased production of contaminating natural sfGFP, see below). Additionally, cells generally produced higher fluorescence at higher concentrations of TAT1TP. […] Protein production was again quantified via the gel shift assay (FIG. 6C and FIG. 6D). Generally, as the concentration of NaMTP decreased below 200 μM, incrementally lower fidelity of AzK incorporation into sfGFP was observed, while with use of 5FMTP this reduction in fidelity was only observed below a concentration of 50 μM. Clearly lower concentrations of 5FMTP can be used without compromising fidelity. Cells provided with a high concentration of 5FMTP (≥50 µM) produced high protein shifts at all concentrations of TAT1TP explored (100 μM, 50 μM, 25 μM, or 12.5 μM).
Optimization of in vivo Translation Conditions. An overnight culture of the SSO strain ML2 carrying the pGEX-MbPylRS TetR plasmid was grown in 2×YT supplemented with 50 mM potassium phosphate, […] chloramphenicol and 100 μg/mL carbenicillin (herein referred to in this section as “media”), then diluted back to an OD600 of 0.03 in the same media and grown to an OD600 of 0.4-0.6. The culture was then chilled with shaking over ice-water for 15 min then pelleted by centrifugation at 3,200×g for 10 min. Cells were then resuspended and washed with ice-cold ddH2O twice then resuspended in ice-cold ddH2O to an OD600 of 55-65. The electrocompetent cells (50 μL) and ˜1 ng of Golden Gate assembled plasmid with the UBP within the sfGFP and tRNAPyl genes (see Golden Gate Assembly of Plasmids) were transferred to a pre-chilled electroporation cuvette (0.2-cm-gap), then electroporated (Gene Pulser II; Bio-Rad) according to manufacturer's recommendations (voltage […], capacitor 2.5 μF, resistor 200Ω), and then immediately diluted with 950 μL of media. […] The culture was monitored for cell growth (Envision 2103 Multilabel Plate Reader with a 590/20 nm filter) and then collected at an OD600˜1.0. […]

[3] = tested on: sfGFP^151(AXC); assay: In vivo translation screen of XTPs/YTPs: protein shift (AzK incorporation) by DBCO-TAMRA western blot; assay type: cell-based, E. coli; conditions: TPT3TP 30 μM, dCNMO-dTPT3 UBP, strain ML2
Protocol: (§1) In vivo Translation Screen of XTPs/YTPs. An overnight culture of the SSO strain ML2 carrying the pGEX-MbPylRS TetR plasmid was grown in 2×YT supplemented with 50 mM potassium phosphate, […] chloramphenicol and 100 μg/mL carbenicillin (herein referred to in this section as “media”), then diluted back to an OD600 of 0.03 in the same media and grown to an OD600 of 0.4 to 0.6. The culture was then chilled with shaking over ice-water for 15 minutes then pelleted by centrifugation at 3,200×g for 10 min. Cells were then resuspended and washed with ice-cold ddH2O twice then resuspended in ice-cold ddH2O to OD600 of 55-65. The electrocompetent cells (50 μL) and 1 ng of Golden Gate assembled plasmid with the UBP within the sfGFP and tRNAPyl genes (see Golden Gate Assembly of Plasmids) were transferred to a pre-chilled electroporation cuvette (0.2-cm-gap), then electroporated (Gene Pulser II; Bio-Rad) according to manufacturer's recommendations (voltage […], capacitor 2.5 μF, resistor 200Ω), and then immediately diluted with 950 μL of media. An aliquot (40 μL) of the transformation was then diluted five-fold in media supplemented with dCNMOTP (25 μM) and dTPT3TP (10 μM) for a final volume of 200 μL then allowed to recover for 1 h shaking at 37° C. Two-fold dilutions of the recovery were plated onto solid media supplemented with zeocin (50 μg/mL), dCNMOTP (10 μM), dTPT3TP (10 μM), and agar (2% w/v), then grown at 37° C. for 18 h. Single colonies were picked and grown in media (300 μL) supplemented with 50 μg/mL zeocin and provided dCNMOTP (25 μM) and dTPT3TP (10 μM) (herein afterward referred to in this section as “growth media”). The culture was monitored for cell growth (Envision 2103 Multilabel Plate Reader with a 590/20 nm filter) and then collected at an OD600˜1.0. An aliquot (50 μL) was subjected to plasmid isolation using the ZR Plasmid Prep Kit (Zymo Research). Isolated plasmids were then subjected to the streptavidin gel shift assay described below (using primers P3-4 and P5-6, Table S1) to determine UBP retention.
(§2) A colony with excellent UBP retention was then diluted to an OD600˜0.01 in growth media and grown to OD600˜0.4-0.6. This culture was then divided into multiple 300 μL cultures and for the screen of XTP analogs, each was provided with the corresponding XTP (at either 25 μM or 250 μM) or ddH2O for “−XTP” samples, TPT3TP (30 μM), and AzK (10 mM). For the screen of YTP analogs, each 300 μL culture was provided with the corresponding YTP (at either 25 μM or 250 μM) or ddH2O for “−YTP” samples, NaMTP (250 μM), and AzK (10 mM). Samples were shielded from light after addition of AzK to prevent photodegradation. These samples were then grown at 37° C. for 20 min before adding 1 mM IPTG and grown at 37° C. for an additional 1 h to induce T7 RNAP and transcription of tRNAPyl and PylRS. From this point on, cells were monitored for growth and fluorescence. Expression of sfGFP was then induced with anhydrotetracycline (100 ng/mL). After an additional 3 h of growth at 37° C., cells were collected (230 μL for affinity purification of sfGFP), cooled, and then pelleted and stored at −80° C. before protein purification.
Affinity Purification of sfGFP. Cell pellets collected from translation experiments were resuspended in BugBuster (100 μL 1×, EMD Millipore) and shaken at room temperature for 15 min. […]

[4] = tested on: sfGFP^151(AXC); assay: In vivo translation screen of XTPs/YTPs: total sfGFP fluorescence; assay type: cell-based, E. coli
Protocol: as §1, §2
An SAR analysis was initiated with NaMTP and the nine XTP analogs. Based on performance in the dXTP screen described above, and to eliminate variable loss at the DNA level as a complicating factor, the unnatural information was encoded with the dCNMO-dTPT3 UBP. Additionally, the E. coli strain ML2, which expresses the nucleoside triphosphate transporter PtNTT2, but has also been genetically engineered for higher fidelity replication of the UBP by deletion of the gene encoding RecA (as is common in cloning strains) and overexpression of DNA Pol II was used. The same plasmid described above in Examples 1A and 1, harboring sfGFP^151(AXC) and tRNA^Pyl(GYT), was used, and to focus the screen to a single unnatural ribonucleotide, the M. mazei Pyl tRNA was transcribed in the presence of 30 μM TPT3TP. […]

Compound: O=P(O)(O)OP(=O)(O)OP(=O)(O)OC[C@H]1O[C@@H](n2ccc3ccccc3c2=S)[C@H](O)[C@@H]1O [SICSTP]
- OD600 ([1]; YTP 25 μM): 1.25 ± 0.10
- OD600 ([1]; YTP 250 μM): 0.90 ± 0.04
- Cell growth / toxicity [1]: at least slightly toxic

Compound: COc1cc2ccccc2cc1[C@@H]1O[C@H](COP(=O)(O)OP(=O)(O)OP(=O)(O)O)[C@@H](O)[C@H]1O [NaMTP]
- Concentration for combined optimization of protein purity and yield ([2]; NaMTP and TAT1TP pair): 200 µM
- XTP concentration below which lower fidelity of AzK incorporation into sfGFP was observed ([2]; with TAT1TP 12.5-100 μM): 200 µM
- sfGFP protein gel shift (ncAA incorporation) ([3]; XTP 25 μM): 86%
- sfGFP protein gel shift (ncAA incorporation) ([3]; XTP 250 μM): 98%

Compound: O=P(O)(O)OP(=O)(O)OP(=O)(O)OC[C@H]1O[C@@H](n2ccc3ccsc3c2=S)[C@H](O)[C@@H]1O [TPT3TP]
- Greater fluorescence than 5SICSTP ([4]; YTP 25 μM): 6 fold
- Greater fluorescence than FSICSTP ([4]; YTP 25 μM): 5 fold
- Greater fluorescence than SICSTP ([4]; YTP 25 μM): 2 fold
- Protein production ([4]; YTP 25 μM): significant quantities of pure protein
- sfGFP fluorescence relative to control without YTP ([4]; YTP 250 μM, NaMTP 250 μM): little fluorescence
- Toxicity ([1]; YTP at lower concentrations (25 μM)): somewhat less toxic
- Cell growth / toxicity [1]: significantly reduced cell growth; also recorded: at least slightly toxic

Compound: COc1ccc(F)cc1[C@@H]1O[C@H](COP(=O)(O)OP(=O)(O)OP(=O)(O)O)[C@@H](O)[C@H]1O [Compound 5F2OMeTP]
- sfGFP protein gel shift (ncAA incorporation) ([3]; XTP 250 μM): 94%
- OD600 ([1]; XTP 25 μM): 1.14 ± 0.05
- OD600 ([1]; XTP 250 μM): 1.16 ± 0.07
